Reference: ChEMBL document CHEMBL1127353, “Nonpeptidic inhibitors of human leukocyte elastase. 2. Design, synthesis, and in vitro activity of a series of 3-amino-6-arylopyridin-2-one trifluoromethyl ketones” (J Med Chem, 1994)

Target: T1, Neutrophil elastase (Homo sapiens, UniProt P08246)
T1 sequence (P08246 whole entry): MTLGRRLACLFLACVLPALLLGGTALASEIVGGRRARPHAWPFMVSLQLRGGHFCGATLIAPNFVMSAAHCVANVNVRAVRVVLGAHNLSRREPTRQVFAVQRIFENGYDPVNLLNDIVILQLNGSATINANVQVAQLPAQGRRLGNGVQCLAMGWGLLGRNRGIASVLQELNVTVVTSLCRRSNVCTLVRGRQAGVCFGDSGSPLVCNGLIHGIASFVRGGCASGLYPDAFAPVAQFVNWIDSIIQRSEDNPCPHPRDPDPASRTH
Experiment: Tested for inhibitory activity against human leukocyte elastase(HLE) enzyme

Ki [nM]	SMILES
66	CC(C)C(NC(=O)Cn1c(Cc2ccccc2)ccc(NC(=O)OCc2ccccc2)c1=O)C(=O)C(F)(F)F (stereo not drawn)
4.4	CC(C)C(NC(=O)Cn1c(-c2cccc(OC(C)(C)C)c2)ccc(NC(=O)OCc2ccccc2)c1=O)C(=O)C(F)(F)F (stereo not drawn)
6.6	CC(C)C(NC(=O)Cn1c(-c2ccc(Cl)cc2)ccc(NC(=O)OCc2ccccc2)c1=O)C(=O)C(F)(F)F (stereo not drawn)
320	CC(C)C(NC(=O)Cn1ccc(-c2ccccc2)c(NC(=O)OCc2ccccc2)c1=O)C(=O)C(F)(F)F (stereo not drawn)
32	CC(C)C(NC(=O)Cn1c(-c2cccc(C(=O)O)c2)ccc(NC(=O)OCc2ccccc2)c1=O)C(=O)C(F)(F)F (stereo not drawn)
9.1	CC(C)C(NC(=O)Cn1c(-c2cccnc2)ccc(NC(=O)OCc2ccccc2)c1=O)C(=O)C(F)(F)F (stereo not drawn)
31	Cc1ccc(-c2ccc(NC(=O)OCc3ccccc3)c(=O)n2CC(=O)NC(C(=O)C(F)(F)F)C(C)C)cc1 (stereo not drawn)
11	CC(C)C(NC(=O)Cn1c(-c2ccccc2Cl)ccc(NC(=O)OCc2ccccc2)c1=O)C(=O)C(F)(F)F (stereo not drawn)
